Laboratory results taken from PubChem BioAssay (NCI).
“And” between values parts separate entries of the source, which are not always exact repeats. Equal values may be shown once.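 Results reflect a 48-hour exposure of cells in 96-well plates to compound at five concentrations. GI50 = concentration required for 50% inhibition of growth. TGI denotes the concentration required for complete inhibition of growth.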

tested on: SF-268 CNS; assay: NCI-60 cell line screen, 48 h

Point of comparison: `CC(=O)[O][Hg][c]1c(N)c(C)cc(C)c1F`, TGI 2.7 µM. Against it:
- COc1cccc(NC(=O)CC(=O)n2nc(C)c(N=Nc3ccccc3)c2C)c1 — higher, > 100 µM
- O=C(O)CCSC(=O)Nc1cccc(F)c1 — higher, > 100 µM
- c1cc2c(cc1NC1=NCCO1)CCC2 — higher, > 10 µM

With `CC(=O)[O][Hg][c]1c(N)c(C)cc(C)c1F` the GI50 was 1.22 µM.

tested on: HCT-116 colon; assay: NCI-60 cell line screen, 48 h

Point of comparison: `CCOC(=O)Nc1nc2ccc(OCC)cc2s1`, GI50 6.42 µM. Against it:
- NC(CSC(c1ccccc1)(c1ccccc1)c1ccc2c(c1)OCO2)C(=O)O (configuration not stated) — 18-fold lower, 0.358 µM
- O=C(NCCNc1nccc(-c2c(-c3cccc(O)c3)nc3sccn23)n1)c1ccccc1O — 1.9-fold lower, 3.42 µM
- C[C@@H](CS(C)(=O)=O)Nc1ncc2cc(Oc3ccc(F)cc3F)c(=O)n(C)c2n1 — higher, > 25 µM
- COc1ccc2c(c1)C(=O)/C(=C/c1ccc(OCC(=O)Nc3nccs3)cc1)O2 — 2.3-fold lower, 2.75 µM
- O=[N+]([O-])c1cnc(Sc2ccncn2)s1 — 3.5-fold lower, 1.84 µM
- COc1c2ccoc2c(/C=C/C=O)c2oc(-c3ccccc3)cc(=O)c12 — 3.8-fold lower, 1.7 µM
- Nc1cc2nc3ccccc3sc-2cc1=O — 2.5-fold lower, 2.56 µM
- COc1cc2nc(-c3ccc(C(F)(F)F)cc3)cc(OCCCN3CCC(O)CC3)c2cc1OC — 9.6-fold lower, 0.671 µM
- O=C1NNC(=O)c2ccccc2SSc2ccccc2C(=O)NNC(=O)c2ccccc2SSc2ccccc21 — within 1.5-fold, 5.05 µM
- Fc1ccc(Nc2ncnc3ccc(-c4cnc5[nH]ccc5c4)cc23)cc1Cl — 3.6-fold lower, 1.77 µM
- Oc1ccc(Cl)cc1-c1cc(-c2ccccc2Cl)[nH]n1 — within 1.5-fold, 4.6 µM
- CNC(=O)c1cc(Oc2ccc3nc(NC(=O)Nc4ccc(Cl)c(C(F)(F)F)c4)sc3c2)ccn1 — 3.4-fold lower, 1.89 µM
- COc1ccc(C2=CSc3cc(Cl)c(C)cc3S(=O)(=O)N2C(C)=O)cc1 — 3.3-fold higher, 21.3 µM
- CC(=O)[O][Hg][c]1c(N)c(C)cc(C)c1F — 3.4-fold lower, 1.88 µM

Point of comparison: `CC(=O)[O][Hg][c]1c(N)c(C)cc(C)c1F`, TGI 3.92 µM. Against it:
- NC(CSC(c1ccccc1)(c1ccccc1)c1ccc2c(c1)OCO2)C(=O)O (configuration not stated) — 7.6-fold higher, 29.6 µM
- C=CCc1cc(OC)c2c(c1)C(O)CC(c1ccc(OC)c(OC)c1)O2 (configuration not stated) — higher, > 100 µM
- O=C(NCCNc1nccc(-c2c(-c3cccc(O)c3)nc3sccn23)n1)c1ccccc1O — 3.8-fold higher, 14.9 µM
- C[C@@H](CS(C)(=O)=O)Nc1ncc2cc(Oc3ccc(F)cc3F)c(=O)n(C)c2n1 — higher, > 25 µM
- CC(C)=CCCc1c(C)ccc2c1C(=O)C(=O)C(C(C)C)=C2 — 1.7-fold higher, 6.55 µM
- CCOC(=O)Nc1nc2ccc(OCC)cc2s1 — higher, > 100 µM
- NS(=O)(=O)c1ccccc1C(=O)N/N=C(\c1nc2ccc([N+](=O)[O-])cc2[nH]c1=O)C(O)c1ccc([N+](=O)[O-])cc1 (configuration not stated) — higher, > 100 µM
- COC(=O)[C@@H](C)C[C@H](Cc1ccc(F)cc1)NC(=O)c1csc([C@@H](C[C@H](C(C)C)N(C)C(=O)[C@@H](NC(=O)[C@H]2CCCCN2C)C(C)C)OC(C)=O)n1 — 17-fold lower, 0.225 µM
- N#CC(C#N)=c1ccc(=C2NCC3CCCN23)cc1 (configuration not stated) — higher, > 100 µM
- COc1ccc2c(c1)C(=O)/C(=C/c1ccc(OCC(=O)Nc3nccs3)cc1)O2 — 2.7-fold higher, 10.7 µM
- O=[N+]([O-])c1cnc(Sc2ccncn2)s1 — within 1.5-fold, 3.33 µM
- COC(=O)[C@@]12C3=NO[C@]1(C(=O)OC)C(O[Si](C)(C)C(C)(C)C)[C@H]1OC(C)(C)O[C@H]1[C@@H]2C(OCc1ccccc1)CC3 (some centres not stated) — higher, > 100 µM
- COc1c2ccoc2c(/C=C/C=O)c2oc(-c3ccccc3)cc(=O)c12 — within 1.5-fold, 4.73 µM
- Nc1cc2nc3ccccc3sc-2cc1=O — 2.6-fold higher, 10.3 µM
- CCN(CC)CC(C(=O)Nc1c(C)cccc1C)/C(C)=N\NC(=O)C[N+](C)(C)C (configuration not stated) — higher, > 100 µM
- CC1=C(C(=O)Nc2ccccc2C)C(c2ccco2)C(C(=O)Nc2ccccc2C)=C(C)N1C — higher, > 100 µM
- COc1cc2nc(-c3ccc(C(F)(F)F)cc3)cc(OCCCN3CCC(O)CC3)c2cc1OC — 4.4-fold higher, 17.2 µM
- CC(=O)OC(C)C(=O)C1c2cccc(O)c2C(=O)c2c(O)cc(C)cc21 (configuration not stated) — 3.6-fold lower, 1.09 µM
- O=[S@@]1Nc2ccc(Br)cc2S1 — higher, > 100 µM
- COc1ccc2c(c1)C1(C=N2)CCN(C(C)=O)CC1 — higher, > 100 µM
- Fc1ccc(Nc2ncnc3ccc(-c4cnc5[nH]ccc5c4)cc23)cc1Cl — within 1.5-fold, 3.63 µM
- Oc1ccc(Cl)cc1-c1cc(-c2ccccc2Cl)[nH]n1 — higher, > 100 µM
- CNC(=O)c1cc(Oc2ccc3nc(NC(=O)Nc4ccc(Cl)c(C(F)(F)F)c4)sc3c2)ccn1 — within 1.5-fold, 5.39 µM
- COc1ccc2nc3cc(Cl)ccc3c(Sc3ccccc3[N+](=O)[O-])c2c1 — higher, > 100 µM
- O=C(O)C(Cc1ccccc1)N1C(=O)N/C(=C\c2ccc(F)cc2)C1=O (configuration not stated) — higher, > 100 µM
- COc1ccc(C2=CSc3cc(Cl)c(C)cc3S(=O)(=O)N2C(C)=O)cc1 — 13-fold higher, 52.5 µM
- COc1cccc(NC(=O)CC(=O)n2nc(C)c(N=Nc3ccccc3)c2C)c1 — higher, > 100 µM
- CCNC1C2(CCCCC2)NC(=O)C12CCCCC2 (configuration not stated) — higher, > 100 µM
- c1cc2c(cc1NC1=NCCO1)CCC2 — higher, > 10 µM

For `O=C1NNC(=O)c2ccccc2SSc2ccccc2C(=O)NNC(=O)c2ccccc2SSc2ccccc21`, the TGI was 50 µM and > 100 µM.

tested on: HOP-62 NSCLC; assay: NCI-60 cell line screen, 48 h

Point of comparison: `Nc1cc2nc3ccccc3sc-2cc1=O`, GI50 2.51 µM. Against it:
- NC(CSC(c1ccccc1)(c1ccccc1)c1ccc2c(c1)OCO2)C(=O)O (configuration not stated) — 1.5-fold lower, 1.64 µM
- O=C(NCCNc1nccc(-c2c(-c3cccc(O)c3)nc3sccn23)n1)c1ccccc1O — 3.6-fold higher, 9.04 µM
- C[C@@H](CS(C)(=O)=O)Nc1ncc2cc(Oc3ccc(F)cc3F)c(=O)n(C)c2n1 — higher, > 25 µM
- CCOC(=O)Nc1nc2ccc(OCC)cc2s1 — 16-fold higher, 39.4 µM
- COc1ccc2c(c1)C(=O)/C(=C/c1ccc(OCC(=O)Nc3nccs3)cc1)O2 — 5.1-fold lower, 0.491 µM
- O=[N+]([O-])c1cnc(Sc2ccncn2)s1 — 8.7-fold higher, 21.8 µM
- COc1c2ccoc2c(/C=C/C=O)c2oc(-c3ccccc3)cc(=O)c12 — within 1.5-fold, 2.49 µM
- COc1cc2nc(-c3ccc(C(F)(F)F)cc3)cc(OCCCN3CCC(O)CC3)c2cc1OC — within 1.5-fold, 1.8 µM
- Fc1ccc(Nc2ncnc3ccc(-c4cnc5[nH]ccc5c4)cc23)cc1Cl — within 1.5-fold, 3.54 µM
- Oc1ccc(Cl)cc1-c1cc(-c2ccccc2Cl)[nH]n1 — 7.7-fold higher, 19.3 µM
- CNC(=O)c1cc(Oc2ccc3nc(NC(=O)Nc4ccc(Cl)c(C(F)(F)F)c4)sc3c2)ccn1 — within 1.5-fold, 1.94 µM
- COc1ccc(C2=CSc3cc(Cl)c(C)cc3S(=O)(=O)N2C(C)=O)cc1 — 19-fold higher, 47.2 µM
- CC(=O)[O][Hg][c]1c(N)c(C)cc(C)c1F — within 1.5-fold, 2.75 µM

Point of comparison: `COc1ccc2c(c1)C(=O)/C(=C/c1ccc(OCC(=O)Nc3nccs3)cc1)O2`, TGI 26 µM. Against it:
- NC(CSC(c1ccccc1)(c1ccccc1)c1ccc2c(c1)OCO2)C(=O)O (configuration not stated) — higher, > 100 µM
- C=CCc1cc(OC)c2c(c1)C(O)CC(c1ccc(OC)c(OC)c1)O2 (configuration not stated) — higher, > 100 µM
- O=C(NCCNc1nccc(-c2c(-c3cccc(O)c3)nc3sccn23)n1)c1ccccc1O — 1.6-fold higher, 42.1 µM
- C[C@@H](CS(C)(=O)=O)Nc1ncc2cc(Oc3ccc(F)cc3F)c(=O)n(C)c2n1 — not separable, > 25 µM
- CCOC(=O)Nc1nc2ccc(OCC)cc2s1 — higher, > 100 µM
- COC(=O)[C@@H](C)C[C@H](Cc1ccc(F)cc1)NC(=O)c1csc([C@@H](C[C@H](C(C)C)N(C)C(=O)[C@@H](NC(=O)[C@H]2CCCCN2C)C(C)C)OC(C)=O)n1 — not separable, > 16.7 µM
- N#CC(C#N)=c1ccc(=C2NCC3CCCN23)cc1 (configuration not stated) — higher, > 100 µM
- O=[N+]([O-])c1cnc(Sc2ccncn2)s1 — 1.5-fold higher, 40.2 µM
- COc1c2ccoc2c(/C=C/C=O)c2oc(-c3ccccc3)cc(=O)c12 — 2.7-fold lower, 9.48 µM
- Nc1cc2nc3ccccc3sc-2cc1=O — 4.6-fold lower, 5.71 µM
- CCN(CC)CC(C(=O)Nc1c(C)cccc1C)/C(C)=N\NC(=O)C[N+](C)(C)C (configuration not stated) — higher, > 100 µM
- CC1=C(C(=O)Nc2ccccc2C)C(c2ccco2)C(C(=O)Nc2ccccc2C)=C(C)N1C — higher, > 100 µM
- COc1cc2nc(-c3ccc(C(F)(F)F)cc3)cc(OCCCN3CCC(O)CC3)c2cc1OC — 1.7-fold lower, 15 µM
- CC(=O)OC(C)C(=O)C1c2cccc(O)c2C(=O)c2c(O)cc(C)cc21 (configuration not stated) — 26-fold lower, 1.01 µM
- COc1ccc2c(c1)C1(C=N2)CCN(C(C)=O)CC1 — higher, > 100 µM
- Fc1ccc(Nc2ncnc3ccc(-c4cnc5[nH]ccc5c4)cc23)cc1Cl — 1.7-fold lower, 15.6 µM
- Oc1ccc(Cl)cc1-c1cc(-c2ccccc2Cl)[nH]n1 — higher, > 100 µM
- CCOC(=O)C(Sc1ccccc1)c1c(OC)cc(=O)oc1/C=[N+](/[O-])c1ccc(N(C)C)cc1 (configuration not stated) — higher, > 100 µM
- CNC(=O)c1cc(Oc2ccc3nc(NC(=O)Nc4ccc(Cl)c(C(F)(F)F)c4)sc3c2)ccn1 — 5.5-fold lower, 4.74 µM
- COc1ccc2nc3cc(Cl)ccc3c(Sc3ccccc3[N+](=O)[O-])c2c1 — higher, > 100 µM
- O=C(O)C(Cc1ccccc1)N1C(=O)N/C(=C\c2ccc(F)cc2)C1=O (configuration not stated) — higher, > 100 µM
- COc1ccc(C2=CSc3cc(Cl)c(C)cc3S(=O)(=O)N2C(C)=O)cc1 — higher, > 100 µM
- COc1cccc(NC(=O)CC(=O)n2nc(C)c(N=Nc3ccccc3)c2C)c1 — higher, > 100 µM
- CC(=O)[O][Hg][c]1c(N)c(C)cc(C)c1F — 4.7-fold lower, 5.49 µM
- O=C(O)CCSC(=O)Nc1cccc(F)c1 — 3.7-fold higher, 95.7 µM
- CCNC1C2(CCCCC2)NC(=O)C12CCCCC2 (configuration not stated) — higher, > 100 µM
- c1cc2c(cc1NC1=NCCO1)CCC2 — not separable, > 10 µM

For `COC(=O)[C@@H](C)C[C@H](Cc1ccc(F)cc1)NC(=O)c1csc([C@@H](C[C@H](C(C)C)N(C)C(=O)[C@@H](NC(=O)[C@H]2CCCCN2C)C(C)C)OC(C)=O)n1`, the GI50 was 0.00187 µM and 0.0102 µM.

In the case of `O=C1NNC(=O)c2ccccc2SSc2ccccc2C(=O)NNC(=O)c2ccccc2SSc2ccccc21`, the TGI was 50 µM and > 100 µM.

tested on: CAKI-1 renal; assay: NCI-60 cell line screen, 48 h

Point of comparison: `O=C(NCCNc1nccc(-c2c(-c3cccc(O)c3)nc3sccn23)n1)c1ccccc1O`, GI50 3.23 µM. Against it:
- NC(CSC(c1ccccc1)(c1ccccc1)c1ccc2c(c1)OCO2)C(=O)O (configuration not stated) — 1.6-fold higher, 5.14 µM
- C[C@@H](CS(C)(=O)=O)Nc1ncc2cc(Oc3ccc(F)cc3F)c(=O)n(C)c2n1 — higher, > 25 µM
- CCOC(=O)Nc1nc2ccc(OCC)cc2s1 — higher, > 100 µM

Point of comparison: `O=C(NCCNc1nccc(-c2c(-c3cccc(O)c3)nc3sccn23)n1)c1ccccc1O`, TGI 21.8 µM. Against it:
- NC(CSC(c1ccccc1)(c1ccccc1)c1ccc2c(c1)OCO2)C(=O)O (configuration not stated) — higher, > 100 µM
- C=CCc1cc(OC)c2c(c1)C(O)CC(c1ccc(OC)c(OC)c1)O2 (configuration not stated) — higher, > 100 µM
- C[C@@H](CS(C)(=O)=O)Nc1ncc2cc(Oc3ccc(F)cc3F)c(=O)n(C)c2n1 — higher, > 25 µM
- CC(C)=CCCc1c(C)ccc2c1C(=O)C(=O)C(C(C)C)=C2 — 2.8-fold lower, 7.79 µM
- CCOC(=O)Nc1nc2ccc(OCC)cc2s1 — higher, > 100 µM
- NS(=O)(=O)c1ccccc1C(=O)N/N=C(\c1nc2ccc([N+](=O)[O-])cc2[nH]c1=O)C(O)c1ccc([N+](=O)[O-])cc1 (configuration not stated) — higher, > 100 µM
- N#CC(C#N)=c1ccc(=C2NCC3CCCN23)cc1 (configuration not stated) — higher, > 100 µM
